Results: patent US8802597B2, “Herbicidal pyrimidines” (E I du Pont de Nemours and Company, priority 2003, dated 2014)
Where two headings read alike, the source gives them in different places.

Assays:
[1] = test system: sulfonylurea herbicide-resistant (SU-resistant) catchweed bedstraw (GALAP; Galium aparine); test: Test K postemergence; format: in vivo; conditions: 16 g a.i./ha, 15 days
Method: (§1) Seeds of plant species selected from sulfonylurea herbicide-susceptible (SU-susceptible) and sulfonylurea herbicide-resistant (SU-resistant) catchweed bedstraw (GALAP; Galium aparine) and wheat (TRZAW; Triticum aestivum) were treated with postemergence applications of test chemicals formulated in a non-phytotoxic solvent mixture which included a surfactant. Plants were treated at the 2-3 leaf stage and 2 whorl stage for wheat and catchweed bedstraw, respectively. Treated plants and controls were maintained in a controlled growth environment for 15 days after which time all species were compared to controls and visually evaluated. Plant response ratings, summarized in Table K, are based on a scale of 0 to 100 where 0 is no effect and 100 is complete control. A dash (-) response means no test result.

[2] = test system: wheat (TRZAW; Triticum aestivum); test: Test K postemergence; format: in vivo; conditions: 16 g a.i./ha, 15 days
Method: as §1

[3] = test system: sulfonylurea herbicide-susceptible (SU-susceptible) catchweed bedstraw (GALAP; Galium aparine); test: Test K postemergence; format: in vivo; conditions: 16 g a.i./ha, 15 days
Method: as §1

[4] = test system: crabgrass (Digitaria sanguinalis); test: Test A pre/postemergence; format: in vivo; conditions: Digitaria sanguinalis, 240 h, read-out: Plant response rating, Crabgrass; for pest or weed control at 125 g/ha: 125 g ai/ha; for pest or weed control at 500 g/ha: 500 g ai/ha
Summary of the method: (§2)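 Pre/post greenhouse screen; loam/sand soil; solvent + surfactant formulation; pre = directed soil spray at planting, post = 1–2 leaf plants, 2–10 cm; ~10 d; visual 0–100 rating vs untreated.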

[5] = test system: giant foxtail (Setaria faberi); test: Test A pre/postemergence; format: in vivo; conditions: Setaria faberi, 240 h, read-out: Plant response rating, Foxtail, Giant; for pest or weed control at 125 g/ha: 125 g ai/ha; for pest or weed control at 500 g/ha: 500 g ai/ha
Summary of the method: as §2

[6] = test system: barnyardgrass (Echinochloa crus-galli); test: Test A pre/postemergence; format: in vivo; conditions: Echinochloa crus-galli, 240 h, read-out: Plant response rating, Barnyardgrass; for pest or weed control at 125 g/ha: 125 g ai/ha; for pest or weed control at 500 g/ha: 500 g ai/ha
Summary of the method: as §2

[7] = test system: redroot pigweed (Amaranthus retroflexus); test: Test A pre/postemergence; format: in vivo; conditions: Amaranthus retroflexus, 240 h, read-out: Plant response rating, Pigweed; for pest or weed control at 125 g/ha: 125 g ai/ha; for pest or weed control at 500 g/ha: 500 g ai/ha
Summary of the method: as §2

[8] = test system: velvetleaf (Abutilon theophrasti); test: Test A pre/postemergence; format: in vivo; conditions: Abutilon theophrasti, 240 h, read-out: Plant response rating, Velvetleaf; for pest or weed control at 125 g/ha: 125 g ai/ha; for pest or weed control at 500 g/ha: 500 g ai/ha
Summary of the method: as §2

[9] = test system: morningglory (Ipomoea spp.); test: Test A pre/postemergence; format: in vivo; conditions: Ipomoea, 240 h, read-out: Plant response rating, Morningglory; for pest or weed control at 125 g/ha: 125 g ai/ha; for pest or weed control at 500 g/ha: 500 g ai/ha
Summary of the method: as §2

[10] = post-emergence, Postemergence, 0 to 100 scale (0 no effect, 100 complete control)
[11] = pre-emergence, Preemergence, 0 to 100 scale where 0 is no effect and 100 is complete control, approximately ten days

Compound	pest or weed control at 125 g/ha [4, 10] [%]	pest or weed control at 500 g/ha [4, 10] [%]	pest or weed control at 125 g/ha [4, 11] [%]	pest or weed control at 500 g/ha [4, 11] [%]	pest or weed control at 125 g/ha [5, 10] [%]	pest or weed control at 500 g/ha [5, 10] [%]	pest or weed control at 125 g/ha [5, 11] [%]	pest or weed control at 500 g/ha [5, 11] [%]	pest or weed control at 125 g/ha [6, 10] [%]	pest or weed control at 500 g/ha [6, 10] [%]	pest or weed control at 125 g/ha [6, 11] [%]	pest or weed control at 500 g/ha [6, 11] [%]	pest or weed control at 125 g/ha [7, 10] [%]	pest or weed control at 500 g/ha [7, 10] [%]	pest or weed control at 125 g/ha [7, 11] [%]	pest or weed control at 500 g/ha [7, 11] [%]	pest or weed control at 125 g/ha [8, 10] [%]	pest or weed control at 500 g/ha [8, 10] [%]	pest or weed control at 125 g/ha [8, 11] [%]	pest or weed control at 500 g/ha [8, 11] [%]	other results
COc1nc(C)nc(NC(=O)NS(=O)(=O)c2ccccc2Cl)n1 [Chlorsulfuron, chlorsulfuron, reference compound]	–	–	–	–	–	–	–	–	–	–	–	–	–	–	–	–	–	–	–	–	Plant response rating (0 to 100 scale) [1]: 5; Plant response rating (0 to 100 scale) [2]: 20; Plant response rating (0 to 100 scale) [3]: 100
NC(=O)c1nc(C2CC2)nc(N)c1Cl [Compound 85]	0	0	0	5	0	0	0	0	0	0	0	0	75	90	50	60	25	60	0	10	pest or weed control at 125 g/ha [9, 10]: 20%; pest or weed control at 500 g/ha [9, 10]: 75%; pest or weed control at 125 g/ha [9, 11]: 0%; pest or weed control at 500 g/ha [9, 11]: 20%; melting point: 232 to 236 °C
CCOC(=O)c1nc(C(C)C)nc(N)c1Cl [Compound 108]	0	0	0	20	0	10	0	0	0	5	10	15	50	85	55	75	35	65	10	50	pest or weed control at 125 g/ha [9, 10]: 70%; pest or weed control at 500 g/ha [9, 10]: 90%; pest or weed control at 125 g/ha [9, 11]: 0%; pest or weed control at 500 g/ha [9, 11]: 90%; melting point: 102 to 103 °C
COC(=O)c1nc(C(C)C)nc(N)c1Cl [Compound 110]	0	10	0	15	0	5	0	0	0	10	0	15	55	85	40	65	40	65	25	35	pest or weed control at 125 g/ha [9, 10]: 70%; pest or weed control at 500 g/ha [9, 10]: 85%; pest or weed control at 125 g/ha [9, 11]: 0%; pest or weed control at 500 g/ha [9, 11]: 90%; melting point: 100 to 104 °C (dec.)
